Source: patent US10144715B2, “Piperazine derivatives as liver X receptor modulators” (priority 2014, dated 2018)
Where two headings read alike, the source gives them in different places.

What was measured:
LXR α LBD protein = LXR α LBD protein (Homo sapiens (Human), UniProt Q13133); experiment: LXR α radioligand binding assay (SPA, competition with [3H]TO901317); details: read-out: LXRα Binding Ki
[1] = biological target: Gal4 DNA binding domain fused to the LBD of LXRα in HEK293 cells (Homo sapiens (Human), UniProt Q13133); experiment: LXR luciferase transcriptional reporter gene assay, agonist mode, LXRα; type: cell-based; details: for EC50: read-out: Cell LXRα EC50
Gal4 DNA binding domain fused to the LBD of LXRα in HEK293 cells, sequence (Q13133 209-447): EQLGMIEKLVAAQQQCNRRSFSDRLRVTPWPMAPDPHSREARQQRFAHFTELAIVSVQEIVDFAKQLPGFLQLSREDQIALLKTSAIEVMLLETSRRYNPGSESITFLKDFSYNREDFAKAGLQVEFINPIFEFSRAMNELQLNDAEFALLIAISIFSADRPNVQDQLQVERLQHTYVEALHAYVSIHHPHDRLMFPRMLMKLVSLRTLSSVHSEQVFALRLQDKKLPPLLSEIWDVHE

LXR β LBD protein = LXR β LBD protein (Homo sapiens (Human), UniProt P55055); experiment: biochemical; type: binding
LXR β LBD protein, sequence (P55055 222-460 limits assumed): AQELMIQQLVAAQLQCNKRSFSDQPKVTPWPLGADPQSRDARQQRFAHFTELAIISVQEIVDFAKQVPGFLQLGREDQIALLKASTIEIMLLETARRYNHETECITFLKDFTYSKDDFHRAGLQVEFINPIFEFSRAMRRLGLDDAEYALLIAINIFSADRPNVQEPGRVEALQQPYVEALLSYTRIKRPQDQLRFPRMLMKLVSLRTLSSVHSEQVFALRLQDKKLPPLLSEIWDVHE

[2] = biological target: Gal4 DNA binding domain fused to the LBD of LXRβ in HEK293 cells (Homo sapiens (Human), UniProt P55055); experiment: cell-based
Gal4 DNA binding domain fused to the LBD of LXRβ in HEK293 cells, sequence (P55055 222-460 limits assumed): as above

LXR α LBD protein, sequence (Q13133 209-447): as the sequence (Q13133 209-447) above

Structure (SMILES)	Ki (LXR α LBD protein) [nM]	Cell LXRα efficacy [1]	EC50 [1] [nM]	Ki (LXR β LBD protein; read-out: LXRβ Binding Ki) [nM]	Cell LXRβ efficacy [2]	EC50 [2] [nM]	Ki (LXR β LBD protein) [nM]	Cell LXRβ efficacy ([2]; Biological Test Example 2, agonist mode)	Cell LXRβ efficacy ([2]; agonist mode)	EC50 ([1]; agonist mode) [nM]
CC(C)[C@H]1CN(c2ccc(CO)c(S(C)(=O)=O)c2)CCN1C[C@H]1CC[C@H](C(F)(F)F)OC1 (single isomer, unassigned) [Cpd No 49-2]	194	122 (63) %	122	23	78 (83) %	78				
CC(C)[C@H]1CN(c2cccc(S(C)(=O)=O)c2)CCN1C[C@H]1CC[C@@H](C(F)(F)F)OC1 (single isomer, unassigned) [Cpd No 49-5]	421	578 (64) %	578		266 (77) %	266	70			
CC(C)[C@H]1CN(c2cccc(S(C)(=O)=O)c2)CCN1C[C@H]1CC[C@H](C(F)(F)F)OC1 (single isomer, unassigned) [Cpd No 49-6]	216	442 (56) %	442	46	114 (67) %	114				
CC(C)[C@H]1CN(c2cccc(S(C)(=O)=O)c2)CCN1C[C@@H]1CC[C@@H](C(F)(F)F)OC1 (single isomer, unassigned) [Cpd No 49-7]	333	523 (82) %	523	45	132 (76) %	132				
CC(C)[C@H]1CN(c2cccc(S(C)(=O)=O)c2)CCN1C[C@@H]1CC[C@H](C(F)(F)F)OC1 (single isomer, unassigned) [Cpd No 49-8]	84	103 (79) %	103	11	36 (93) %	36				
CO[C@H]1CC[C@@H](CN2CCN(c3ccc(CO)c(S(C)(=O)=O)c3)C[C@@H]2C(C)C)CC1 (single isomer, unassigned) [Cpd No 51-7]	303	154 (80) %	154	51		42		42 (84) %		
CC(C)[C@@H]1CN(c2ccc(C(N)=O)c(S(C)(=O)=O)c2Cl)CCN1c1nccc(C(F)(F)F)n1 [4-3, (R)-3-chloro-4-(3-isopropyl-4-(4-(trifluoromethyl)pyrimidin-2-yl)piperazin-1-yl)-2-(methylsulfonyl)benzamide]	> 3330		> 20000	> 2500		1680			1679 (12) %	
CC(C)[C@@H]1CN(c2cc(S(C)(=O)=O)c(C(N)=O)cc2Cl)CCN1c1nccc(C(F)(F)F)n1 [4-4, (R)-5-chloro-4-(3-isopropyl-4-(4-(trifluoromethyl)pyrimidin-2-yl)piperazin-1-yl)-2-(methylsulfonyl)benzamide]	> 3330	2852 (7) %		1630		1350				2850
CC(C)[C@@H]1CN(c2ccc(F)c(S(C)(=O)=O)c2)CCN1c1nccc(C(N)=O)n1 [4-5, (R)-2-(4-(4-fluoro-3-(methylsulfonyl)phenyl)-2-isopropylpiperazin-1-yl)pyrimidine-4-carboxamide]	3250	15117 (37) %	15100	495	1723 (24) %	1720				
CC(C)[C@@H]1CN(c2ccc(F)c(S(C)(=O)=O)c2)CCN1c1ncc(C(F)(F)F)c(C(N)=O)n1 [4-7, (R)-2-(4-(4-fluoro-3-(methylsulfonyl)phenyl)-2-isopropylpiperazin-1-yl)-5-(trifluoromethyl)pyrimidine-4-carboxamide]	1680	2952 (73) %	2950	173		477			477 (61) %	
CC(C)[C@@H]1CN(c2ccc(F)c(S(C)(=O)=O)c2)CCN1c1nccc(C#N)n1 [7-7, (R)-2-(4-(4-fluoro-3-(methylsulfonyl)phenyl)-2-isopropylpiperazin-1-yl)pyrimidine-4-carbonitrile]	421	1467 (69) %		47		404			404 (60) %	1470
Cc1cc(C#N)nc(N2CCN(c3ccc(F)c(S(C)(=O)=O)c3)C[C@H]2C(C)C)n1 [7-8, (R)-2-(4-(4-fluoro-3-(methylsulfonyl)phenyl)-2-isopropylpiperazin-1-yl)-6-methylpyrimidine-4-carbonitrile]	> 3330	17317 (26) %		1010		1520			1521 (21) %	17300
CC(C)[C@@H]1CN(c2cccc(S(C)(=O)=O)c2)CCN1c1ncc(OC(F)F)cn1 [7-11, (R)-5-(difluoromethoxy)-2-(2-isopropyl-4-(3-(methylsulfonyl)phenyl)piperazin-1-yl)pyrimidine]	898	3658 (71) %	3660	78		1200			1198 (48) %	
COC(=O)c1cnc(N2CCN(c3ccc(F)c(S(C)(=O)=O)c3)C[C@H]2C(C)C)nc1 [7-14, methyl (R)-2-(4-(4-fluoro-3-(methylsulfonyl)phenyl)-2-isopropylpiperazin-1-yl)pyrimidine-5-carboxylate]	2870	7124 (30) %	7120	285		379			379 (17) %	
COC(=O)c1ccnc(N2CCN(c3ccc(F)c(S(C)(=O)=O)c3)C[C@H]2C(C)C)n1 [7-15, methyl (R)-2-(4-(4-fluoro-3-(methylsulfonyl)phenyl)-2-isopropylpiperazin-1-yl)pyrimidine-4-carboxylate]	213	1102 (85) %	1100	20	213 (65) %	213				
Cc1cc(C(F)(F)F)nc(N2CCN(c3ccc(F)c(S(C)(=O)=O)c3)C[C@H]2C(C)C)n1 [7-18, (R)-2-(4-(4-fluoro-3-(methylsulfonyl)phenyl)-2-isopropylpiperazin-1-yl)-4-methyl-6-(trifluoromethyl)pyrimidine]	105	1110 (61) %	1110	9	161 (44) %	161				
CCOC(=O)c1cnc(N2CCN(c3ccc(F)c(S(C)(=O)=O)c3)C[C@H]2C(C)C)nc1C [7-19, ethyl (R)-2-(4-(4-fluoro-3-(methylsulfonyl)phenyl)-2-isopropylpiperazin-1-yl)-4-methylpyrimidine-5-carboxylate]	162	909 (40) %		17	176 (32) %	176				909
Cc1nc(N2CCN(c3ccc(F)c(S(C)(=O)=O)c3)C[C@H]2C(C)C)ncc1Br [7-20, (R)-5-bromo-2-(4-(4-fluoro-3-(methylsulfonyl)phenyl)-2-isopropylpiperazin-1-yl)-4-methylpyrimidine]	101	787 (80) %		8	142 (57) %	142				787
CC(C)[C@@H]1CN(c2ccc(F)c(S(C)(=O)=O)c2)CCN1c1cncc(C(F)(F)F)n1 [7-45, (R)-2-(4-(4-fluoro-3-(methylsulfonyl)phenyl)-2-isopropylpiperazin-1-yl)-6-(trifluoromethyl)pyrazine]	115	377 (85) %		12	136 (71) %	136				377
CC(C)[C@@H]1CN(c2ccc(F)c(S(C)(=O)=O)c2)CCN1c1nc2ccccc2o1 [7-52, (R)-2-(4-(4-fluoro-3-(methylsulfonyl)phenyl)-2-isopropylpiperazin-1-yl)benzo[d]oxazole]	365	1018 (76) %	1020	41	192 (48) %	192				
CC(C)[C@@H]1CN(c2ccc(F)c(S(C)(=O)=O)c2)CCN1c1nc2c(F)cccc2s1 [7-54, (R)-4-fluoro-2-(4-(4-fluoro-3-(methylsulfonyl)phenyl)-2-isopropylpiperazin-1-yl)benzo[d]thiazole]	68	371 (95) %	371	9	77 (80) %	77				
CC(C)[C@@H]1CN(c2ccc(F)c(S(C)(=O)=O)c2)CCN1c1nc2ccc(F)cc2s1 [7-55, (R)-6-fluoro-2-(4-(4-fluoro-3-(methylsulfonyl)phenyl)-2-isopropylpiperazin-1-yl)benzo[d]thiazole]	120	439 (68) %	439	14	106 (55) %	106				
CC(C)[C@@H]1CN(c2ccc(F)c(S(C)(=O)=O)c2)CCN1c1nc2ccccc2s1 [7-56, (R)-2-(4-(4-fluoro-3-(methylsulfonyl)phenyl)-2-isopropylpiperazin-1-yl)benzo[d]thiazole]	146	770 (70) %	770	15	99 (51) %	99				
CC(C)[C@@H]1CN(c2ccc(F)c(S(C)(=O)=O)c2)CCN1c1nc2cnccc2s1 [7-58, (R)-2-(4-(4-fluoro-3-(methylsulfonyl)phenyl)-2-isopropylpiperazin-1-yl)thiazolo[4,5-c]pyridine]	2960	6486 (31) %	6490	509	1154 (31) %	1150				
